In patent US8084649B2, “Herbicides” (Syngenta Crop Protection, inc., priority 2007, dated 2011):

Tests used:
Assay type in all cases: in vivo
[1] = tested on: Alopecurus myosuroides (ALOMY); assay: Pre-emergence herbicidal activity, glasshouse pot test; conditions: Alopecurus myosuroides, 480 h, rate 500 g/ha, evaluated after 20 days, read-out: Pre-emergence activity, ALOMY (100=total damage to plant; 0=no damage to plant)
Procedure, shortened: (§1)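 Pots were sown in sterilised standard soil and, one day after sowing, sprayed pre-emergence with an aqueous solution of the formulated compound. Plants were grown on in a greenhouse and damage was scored after 20 days on a 0–100 scale, where 100 means total damage.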

Avena fatua (AVEFA) [2] = assay: as above; conditions: Avena fatua, 480 h, rate 500 g/ha, evaluated after 20 days, read-out: Pre-emergence activity, AVEFA (100=total damage to plant; 0=no damage to plant)
Procedure, shortened: as §1

Setaria faberi (SETFA) [3] = assay: as above; conditions: Setaria faberi, 480 h, rate 500 g/ha, evaluated after 20 days, read-out: Pre-emergence activity, SETFA (100=total damage to plant; 0=no damage to plant)
Procedure, shortened: as §1

[4] = tested on: Digitaria sanguinalis (DIGSA); assay: as above; conditions: Digitaria sanguinalis, 480 h, rate 500 g/ha, evaluated after 20 days, read-out: Pre-emergence activity, DIGSA (100=total damage to plant; 0=no damage to plant)
Procedure, shortened: as §1

Lolium perenne (LOLPE) [5] = assay: as above; conditions: Lolium perenne, 480 h, rate 500 g/ha, evaluated after 20 days, read-out: Pre-emergence activity, LOLPE (100=total damage to plant; 0=no damage to plant)
Procedure, shortened: as §1

[6] = tested on: Echinochloa crus-galli (ECHCG); assay: as above; conditions: Echinochloa crus-galli, 480 h, rate 500 g/ha, evaluated after 20 days, read-out: Pre-emergence activity, ECHCG (100=total damage to plant; 0=no damage to plant)
Procedure, shortened: as §1

[7] = tested on: Alopecurus myosuroides (ALOMY); assay: Post-emergence herbicidal activity, glasshouse pot test; conditions: Alopecurus myosuroides, rate 125 g/ha, evaluated after 14 or 15 days, read-out: Post-emergence activity, ALOMY (100=total damage to plant; 0=no damage to plant)
Procedure, shortened: (§2)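 Test species were grown in sterilised soil for 10 days, sprayed post-emergence with the aqueous formulated compound, and kept in a greenhouse under optimum conditions. Herbicidal effect was assessed after 14 or 15 days as percent damage, where 0 means no effect.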

Avena fatua (AVEFA) [8] = assay: as above; conditions: Avena fatua, rate 125 g/ha, evaluated after 14 or 15 days, read-out: Post-emergence activity, AVEFA (100=total damage to plant; 0=no damage to plant)
Procedure, shortened: as §2

Setaria faberi (SETFA) [9] = assay: as above; conditions: Setaria faberi, rate 125 g/ha, evaluated after 14 or 15 days, read-out: Post-emergence activity, SETFA (100=total damage to plant; 0=no damage to plant)
Procedure, shortened: as §2

[10] = tested on: Digitaria sanguinalis (DIGSA); assay: as above; conditions: Digitaria sanguinalis, rate 125 g/ha, evaluated after 14 or 15 days, read-out: Post-emergence activity, DIGSA (100=total damage to plant; 0=no damage to plant)
Procedure, shortened: as §2

Lolium perenne (LOLPE) [11] = assay: as above; conditions: Lolium perenne, rate 125 g/ha, evaluated after 14 or 15 days, read-out: Post-emergence activity, LOLPE (100=total damage to plant; 0=no damage to plant)
Procedure, shortened: as §2

[12] = tested on: Echinochloa crus-galli (ECHCG); assay: as above; conditions: Echinochloa crus-galli, rate 125 g/ha, evaluated after 14 or 15 days, read-out: Post-emergence activity, ECHCG (100=total damage to plant; 0=no damage to plant)
Procedure, shortened: as §2

Row | SMILES | pest or weed control at 500 g/ha [1] [%] | pest or weed control at 500 g/ha (Avena fatua (AVEFA) [2]) [%] | pest or weed control at 500 g/ha (Setaria faberi (SETFA) [3]) [%] | pest or weed control at 500 g/ha [4] [%] | pest or weed control at 500 g/ha (Lolium perenne (LOLPE) [5]) [%] | pest or weed control at 500 g/ha [6] [%] | pest or weed control at 125 g/ha [7] [%] | pest or weed control at 125 g/ha (Avena fatua (AVEFA) [8]) [%] | pest or weed control at 125 g/ha (Setaria faberi (SETFA) [9]) [%] | pest or weed control at 125 g/ha [10] [%] | pest or weed control at 125 g/ha (Lolium perenne (LOLPE) [11]) [%] | pest or weed control at 125 g/ha [12] [%]
1 | CCc1cc(C)cc(CC)c1C1=C(O)CC2(CC[S+]([O-])CC2)CC1=O (stereo not drawn) [Compound T52] | 90 | 100 | 70 | 70 | 100 | 10 | 60 | 60 | 20 | 60 | 40 | 30
2 | CCc1cc(C)cc(CC)c1C1=C(O)CC2(CCS(=O)(=O)CC2)CC1=O [Compound T53] | 60 | 80 | 30 | 100 | 90 | 100 | 80 | 80 | 60 | 90 | 70 | 100
3 | CCc1cc(C)cc(CC)c1C1=C(O)CC(CC(C)S(=O)(=O)C(C)C)CC1=O (stereo not drawn) [Compound T54] | 100 | 80 | 80 | 100 | 100 | 100 | 80 | 60 | 50 | 70 | 80 | 80
4 | CCc1cc(C)cc(CC)c1C1=C(O)CC(CC(C)[S+]([O-])C(C)C)CC1=O (stereo not drawn) [Compound T55] | 100 | 90 | 90 | 100 | 100 | 100 | 90 | 80 | 60 | 80 | 80 | 90
5 | CCc1ccc(-c2ccc(Cl)cc2)cc1C1=C(O)CC(CCSC)CC1=O (stereo not drawn) [Compound T65] | 90 | 60 | 100 | 100 | 70 | 100 | 90 | 90 | 90 | 90 | 70 | 100
6 | CCc1cc(C)cc(CC)c1C1=C(O)CC2(CCC(OC)CC2)CC1=O (stereo not drawn) [Compound T68] | 90 | 70 | 30 | 100 | 100 | 70 | 80 | 40 | 20 | 30 | 80 | 20
7 | COC1CCC2(CC1)CC(=O)C(c1cc(-c3ccc(Cl)cc3)ccc1C)=C(O)C2 (stereo not drawn) [Compound T69] | 0 | 30 | 70 | 100 | 60 | 70 | 20 | 10 | 0 | 0 | 50 | 0
